The values below come from patent US20240307415A1, “STEROID COMPOUND, AND PHARMACEUTICAL COMPOSITION THEREOF AND USE THEREOF” (JIANGSU SIMCERE PHARMACEUTICAL CO., LTD., priority 2021, published 2024).

Each structure is given as a SMILES string.

A short description of data set [1]: Membrane permeability and transport properties (Caco-2). Format: in vitro ADME. The settings on record: human, pH 7.4, Caco-2, 10 μM. The source says:
• 1. Caco-2 cells (ATCC) • 2. HEPES (Solarbio 804D049), penicillin/streptomycin (Solarbio 20200109), and PBS (Solarbio 20200620) • 3. Fetal Bovine Serum (FBS) (Sigma WXBD0055V), lucifer yellow (Sigma MKCJ3738), and NaHCO3 (Sigma SLBZ4647) • 4. Hank's balanced salt solution (HBSS) (Gibco 2085528), non-essential amino acid (NEAA) (Gibco 2211548), and Trypsin/EDTA (Gibco 2120732) • 5. High glucose DMEM (Corning 20319014) • 6. HTS Transwell-96 Well Permeable (Corning, 3391) • 7. Resistance detector (Millipore, Millicell® ERS-2) • 8. Cellometer® Vision (Nexcelom Bioscience) • 9. Infinite 200 PRO microplate reader (Tecan, Infinite M200PRO) • 10. Positive control compound metoprolol (Sinopharm 100084-201403), erythromycin (MCE 84550), and cimetidine (Sinopharm 100158-201406) • 11. ABI QTrap 5500 liquid chromatography-mass spectrometry system
• 1. […] Evaluation of integrity of monolayer cell membrane • 1) The cells fused and differentiated after 14 days of culture and were ready for a transport experiment. • 2) The resistance of the monolayer membrane was measured using a resistance detector. The resistance of each well was recorded. • 3) After measurement, the Transwell culture plate was re-incubated. • 4) The TEER value was calculated: […]

A short description of data set [2]: Metabolic stability in human liver microsomes. It counts as in vitro ADME. Conditions: pH 7.4, 1 μM compound, 0.5 mg/mL microsome, NADPH 1 mM, 37° C., read-out: Human liver microsome stability t1/2. The text has this:
• 1. Human liver microsome (Corning 452117), beagle dog liver microsome (XENOTECH D1000), SD rat liver microsome (XENOTECH R1000), and CD-1 mouse liver microsome (XENOTECH M1000) • 2. Na2HPO4 (Tianjin Guangfu Fine Chemical Research Institute 20180130) • 3. KH2PO4 (Tianjin Guangfu Fine Chemical Research Institute 20180920) • 4. MgCl2 (Tianjin Guangfu Fine Chemical Research Institute 20191216) • 5. NADPH (Solarbio 1216C022) • 6. Positive control compound verapamil (Sigma MKBV4993V) • 7. AB Sciex API4000 liquid chromatography-mass spectrometry system
• 1. Preparation of 100 mM phosphate-buffered saline (PBS): 7.098 g Na2HPO4 was weighed. 500 mL pure water was added. The mixture was dissolved by sonication to give solution A. 3.400 g KH2PO4 was weighed. 250 mL pure water was added. […]
All data were calculated by Microsoft Excel software. The peak area was detected through an extracted ion chromatogram. The in vitro half-life (t1/2) of the compound was determined by linear fitting of the natural logarithm of compound elimination percentage over time.
In vitro half-life (t1/2) was calculated by the slope k: […]
The in vitro intrinsic clearance (in μL/min/mg protein) was calculated using the following formula: […]

`C[C@]12C=CC(=O)C=C1CC[C@@H]1[C@@H]2[C@@H](O)C[C@@]2(C)[C@H]1C[C@H]1O[C@@H](c3ccc(Cc4cc(N)c5c(c4)CCO5)cc3)O[C@]12C(=O)CO` [Compound 009, (6aR,6bS,7S,8aS,8bS,10R,11aR,12aS,12bS)-10-(4-((7-amino-2,3-dihydrobenzofuran-5-yl)methyl)phenyl)-7-hydroxy-8b-(2-hydroxyacetyl)-6a,8a-dimethyl-6a,6b,7,8,8a,8b,11a,12,12a,12b-decahydro-1H-naphtho[2′,1′:4,5]indeno[1,2-d][1,3]dioxolan-4(2H)-one] returned a Papp A→B at 2 h, 10 μM in data set [1] (apical to basal) of 0.73 ×10⁻⁶ cm/s. This compound also yielded a Papp B→A at 2 h, 10 μM in data set [1] (basal to apical) of 3.86 ×10⁻⁶ cm/s. Moreover, the half-life at 1 μM in data set [2] turned out to be 37.8 min.
